Where two headings read alike, the source gives them in different places.
What was measured:
NBXF SK-N-BE(2) = test: 2D monolayer CellTiter-Blue viability, neuroblastoma SK-N-BE(2); format: cell-based; settings: 72 h
Description: (§1) Seventeen compounds, including mebendazole (Batch no. […] Efficacy of compounds was assessed using CellTiter-Blue® Cell Viability Assay. Anti-tumor activity is expressed as absolute and relative IC50 and IC70 values, calculated by non-linear regression analysis.

CYP1A2 = molecular target: T1, CYP1A2 (Homo sapiens, UniProt P05177); test: Cytochrome P450 reaction phenotyping, recombinant CYP1A2 (Bactosomes); settings: for Compound Remaining (% of 0 min): CYP1A2, 5 μM
T1 sequence (P05177 1-516): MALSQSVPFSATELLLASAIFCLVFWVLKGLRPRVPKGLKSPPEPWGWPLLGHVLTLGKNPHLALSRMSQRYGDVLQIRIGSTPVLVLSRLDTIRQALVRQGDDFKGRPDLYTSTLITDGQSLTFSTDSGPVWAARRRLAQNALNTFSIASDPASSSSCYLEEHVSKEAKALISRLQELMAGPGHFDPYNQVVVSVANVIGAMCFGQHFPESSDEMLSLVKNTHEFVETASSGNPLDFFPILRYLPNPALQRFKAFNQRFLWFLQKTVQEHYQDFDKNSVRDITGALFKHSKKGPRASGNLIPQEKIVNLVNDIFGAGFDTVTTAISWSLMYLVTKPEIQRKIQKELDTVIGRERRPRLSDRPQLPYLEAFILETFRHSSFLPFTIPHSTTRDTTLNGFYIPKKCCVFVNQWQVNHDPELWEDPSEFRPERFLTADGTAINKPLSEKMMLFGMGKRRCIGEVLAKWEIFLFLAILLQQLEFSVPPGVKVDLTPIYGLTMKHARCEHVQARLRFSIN
Description: Incubations were also performed using control Bactosomes™ (no P450 enzymes present) to reveal any non-enzymatic degradation. Control compounds known to be metabolised specifically by each P450 isoform were included. All incubations were performed singularly for each test compound.
Incubations were also performed using control Bactosomes™ (no P450 enzymes present) to reveal any non-enzymatic degradation. Control compounds known to be metabolised specifically by each P450 isoform were included. All incubations were performed singularly for each test compound. […] The reactions were stopped by transferring an aliquot of incubate to quench solvent at the appropriate time points, in a 1:3 ratio. The termination plates were centrifuged at 3,000 rpm for 20 min at 4° C. to precipitate the protein.

SXFS HT-1080 = test: 2D monolayer CellTiter-Blue viability, soft tissue sarcoma HT-1080; format: cell-based; settings: 72 h
Description: Seventeen compounds, including mebendazole (Batch no. MKCC1885, Sigma-Aldrich, 100% pure), were tested in vitro across a panel of 8 selected neuroblastoma (NBXF) and 13 selected sarcoma (SXF) derived cell lines by using a 2D monolayer assay. Compounds were tested at […] in half-log increments up to 100 μM and cells were treated for a period of 72 hours. Efficacy of compounds was assessed using CellTiter-Blue® Cell Viability Assay. Anti-tumor activity is expressed as absolute and relative IC50 and IC70 values, calculated by non-linear regression analysis.

SXFS TE671 = test: 2D monolayer CellTiter-Blue viability, soft tissue sarcoma TE671; format: cell-based; settings: 72 h
Description: as §1

RXF 486L = test: 2D monolayer CellTiter-Blue viability, renal cancer RXF 486L (P-gp expressing, multidrug resistant); format: cell-based; settings: for Test/Control (%) at Drug Concentration: 72 h; for IC50: RXF 486L
Description: (§2) Mebendazole was tested in vitro across a panel of 12 tumor cell lines of ovarian and renal cancer by using a 2D monolayer assay. […] OVXF 899L and RXF 486L are P-gp expressing, multidrug resistant cell lines.
(§3) Anti-tumor activity is expressed as absolute and relative IC50/70 values, calculated by 4-parameter non-linear curve fit.

NBXF CHP-212 = test: 2D monolayer CellTiter-Blue viability, neuroblastoma CHP-212; format: cell-based; settings: 72 h
Description: as §1

786-O = test: 2D monolayer CellTiter-Blue viability, renal cancer 786-O; format: cell-based; settings: for IC50: Homo sapiens, 786-0, 72 h
Description: as §2, §3

COC(=O)Nc1nc2ccc(C(=O)c3ccccc3)cc2[nH]1 [Mebendazole, methyl N-(6-benzoyl-1H-benzimidazol-2-yl)carbamate]
Test/Control (%) at Drug Concentration (NBXF SK-N-BE(2); 1.0E+00 μM): 13%
Test/Control (%) at Drug Concentration (NBXF SK-N-BE(2); 1.0E+01 μM): 3%
Test/Control (%) at Drug Concentration (NBXF SK-N-BE(2); 1.0E+02 μM): −1%
Test/Control (%) at Drug Concentration (NBXF SK-N-BE(2); 1.0E−01 μM): 55%
Test/Control (%) at Drug Concentration (NBXF SK-N-BE(2); 1.0E−02 μM): 85%
Test/Control (%) at Drug Concentration (NBXF SK-N-BE(2); 3.2E+00 μM): 6%
Test/Control (%) at Drug Concentration (NBXF SK-N-BE(2); 3.2E+01 μM): 2%
Test/Control (%) at Drug Concentration (NBXF SK-N-BE(2); 3.2E−01 μM): 23%
Test/Control (%) at Drug Concentration (NBXF SK-N-BE(2); 3.2E−02 μM): 80%
Test/Control (%) at Drug Concentration (NBXF SK-N-BE(2); 3.2E−03 μM): 87%
Compound Remaining (% of 0 min) (CYP1A2; 0 min): 100 % of 0 min
Compound Remaining (% of 0 min) (CYP1A2; 5 min): 80.1 % of 0 min
Compound Remaining (% of 0 min) (CYP1A2; 15 min): 45.8 % of 0 min
Compound Remaining (% of 0 min) (CYP1A2; 30 min): 20.7 % of 0 min
Compound Remaining (% of 0 min) (CYP1A2; 45 min): 9.88 % of 0 min
half-life at 5 μM (CYP1A2; human, recombinant CYP1A2 (Bactosomes), pH 7.4): 13.3 min
Test/Control (%) at Drug Concentration (SXFS HT-1080; HT-1080, 1.0E+00 μM): 7%
Test/Control (%) at Drug Concentration (SXFS HT-1080; HT-1080, 1.0E+01 μM): 4%
Test/Control (%) at Drug Concentration (SXFS HT-1080; HT-1080, 1.0E+02 μM): 1%
Test/Control (%) at Drug Concentration (SXFS HT-1080; HT-1080, 1.0E−01 μM): 79%
Test/Control (%) at Drug Concentration (SXFS HT-1080; HT-1080, 1.0E−02 μM): 89%
Test/Control (%) at Drug Concentration (SXFS HT-1080; HT-1080, 3.2E+00 μM): 4%
Test/Control (%) at Drug Concentration (SXFS HT-1080; HT-1080, 3.2E+01 μM): 3%
Test/Control (%) at Drug Concentration (SXFS HT-1080; HT-1080, 3.2E−01 μM): 35%
Test/Control (%) at Drug Concentration (SXFS HT-1080; HT-1080, 3.2E−02 μM): 79%
Test/Control (%) at Drug Concentration (SXFS HT-1080; HT-1080, 3.2E−03 μM): 90%
Test/Control (%) at Drug Concentration (SXFS TE671; TE671, 1.0E+00 μM): 38%
Test/Control (%) at Drug Concentration (SXFS TE671; TE671, 1.0E+01 μM): 17%
Test/Control (%) at Drug Concentration (SXFS TE671; TE671, 1.0E+02 μM): 5%
Test/Control (%) at Drug Concentration (SXFS TE671; TE671, 1.0E−01 μM): 72%
Test/Control (%) at Drug Concentration (SXFS TE671; TE671, 1.0E−02 μM): 87%
Test/Control (%) at Drug Concentration (SXFS TE671; TE671, 3.2E+00 μM): 32%
Test/Control (%) at Drug Concentration (SXFS TE671; TE671, 3.2E+01 μM): 13%
Test/Control (%) at Drug Concentration (SXFS TE671; TE671, 3.2E−01 μM): 45%
Test/Control (%) at Drug Concentration (SXFS TE671; TE671, 3.2E−02 μM): 85%
Test/Control (%) at Drug Concentration (SXFS TE671; TE671, 3.2E−03 μM): 80%
Test/Control (%) at Drug Concentration (RXF 486L; RXF 486, 1.0E+00 μM): 24%
Test/Control (%) at Drug Concentration (RXF 486L; RXF 486, 1.0E−01 μM): 88%
Test/Control (%) at Drug Concentration (RXF 486L; RXF 486, 1.0E−02 μM): 101%
Test/Control (%) at Drug Concentration (RXF 486L; RXF 486, 1.0E−03 μM): 97%
Test/Control (%) at Drug Concentration (RXF 486L; RXF 486, 1.0E−04 μM): 92%
Test/Control (%) at Drug Concentration (RXF 486L; RXF 486, 3.2E+00 μM): 17%
Test/Control (%) at Drug Concentration (RXF 486L; RXF 486, 3.2E−01 μM): 45%
Test/Control (%) at Drug Concentration (RXF 486L; RXF 486, 3.2E−02 μM): 92%
Test/Control (%) at Drug Concentration (RXF 486L; RXF 486, 3.2E−03 μM): 94%
Test/Control (%) at Drug Concentration (RXF 486L; RXF 486, 3.2E−04 μM): 96%
Abs. IC70 (RXF 486L; RXF 486, 72 h): 545 nM
Rel. IC70 (RXF 486L; RXF 486, 72 h): 362 nM
Bot. (%) (RXF 486L; RXF 486, 72 h, curve fit): 18%
Top (%) (RXF 486L; RXF 486, 72 h, curve fit): 95%
IC50 (RXF 486L; RXF 486, 72 h, read-out: Abs. IC50): 292 nM
IC50 (RXF 486L; RXF 486, 72 h, read-out: Rel. IC50): 248 nM
Test/Control (%) at Drug Concentration (NBXF CHP-212; CHP-212, 1.0E+00 μM): 14%
Test/Control (%) at Drug Concentration (NBXF CHP-212; CHP-212, 1.0E+01 μM): 23%
Test/Control (%) at Drug Concentration (NBXF CHP-212; CHP-212, 1.0E+02 μM): 19%
Test/Control (%) at Drug Concentration (NBXF CHP-212; CHP-212, 1.0E−01 μM): 59%
Test/Control (%) at Drug Concentration (NBXF CHP-212; CHP-212, 1.0E−02 μM): 98%
Test/Control (%) at Drug Concentration (NBXF CHP-212; CHP-212, 3.2E+00 μM): 20%
Test/Control (%) at Drug Concentration (NBXF CHP-212; CHP-212, 3.2E+01 μM): 27%
Test/Control (%) at Drug Concentration (NBXF CHP-212; CHP-212, 3.2E−01 μM): 19%
Test/Control (%) at Drug Concentration (NBXF CHP-212; CHP-212, 3.2E−02 μM): 88%
Test/Control (%) at Drug Concentration (NBXF CHP-212; CHP-212, 3.2E−03 μM): 95%
Test/Control (%) at Drug Concentration (786-O; 1.0E+00 μM, 72 h): 20%
Test/Control (%) at Drug Concentration (786-O; 1.0E−01 μM, 72 h): 95%
Test/Control (%) at Drug Concentration (786-O; 1.0E−02 μM, 72 h): 87%
Test/Control (%) at Drug Concentration (786-O; 1.0E−03 μM, 72 h): 98%
Test/Control (%) at Drug Concentration (786-O; 1.0E−04 μM, 72 h): 107%
Test/Control (%) at Drug Concentration (786-O; 3.2E+00 μM, 72 h): 9%
Test/Control (%) at Drug Concentration (786-O; 3.2E−01 μM, 72 h): 69%
Test/Control (%) at Drug Concentration (786-O; 3.2E−02 μM, 72 h): 88%
Test/Control (%) at Drug Concentration (786-O; 3.2E−03 μM, 72 h): 97%
Test/Control (%) at Drug Concentration (786-O; 3.2E−04 μM, 72 h): 87%
Abs. IC70 (786-O; 72 h): 712 nM
Rel. IC70 (786-O; 72 h): 640 nM
Bot. (%) (786-O; 72 h, curve fit): 9%
Top (%) (786-O; 72 h, curve fit): 94%
IC50 (786-O; read-out: Abs. IC50): 470 nM
IC50 (786-O; read-out: Rel. IC50): 457 nM

From US20220125765A1, “PHARMACEUTICAL COMBINATIONS COMPRISING MEBENDAZOLE AND A STRONG OR MODERATE CYP1A2 INHIBITOR” (ZEPHAPHARM LTD, priority 2019, published 2022)
